Details: Hot wire method

FC(F)(F)/C=C/Cl [(E)-1-chloro-3,3,3-trifluoroprop-1-ene]
Details	thermal conductivity [W/m/K]
422.34 K, 6615 kPa, Liquid	0.05507
422.35 K, 1562 kPa, Fluid (supercritical or subcritical phases)	0.02132
422.37 K, 5710 kPa, Liquid	0.054
422.38 K, 5711 kPa, Liquid	0.05406
422.4 K, 4942 kPa, Liquid	0.05308
422.42 K, 802 kPa, Fluid (supercritical or subcritical phases)	0.02084
422.42 K, 1401 kPa, Fluid (supercritical or subcritical phases)	0.0211
422.42 K, 4947 kPa, Liquid	0.05316
422.43 K, 1403 kPa, Fluid (supercritical or subcritical phases)	0.02113
422.44 K, 4300 kPa, Liquid	0.05228
422.44 K, 4307 kPa, Liquid	0.05231
422.45 K, 3760 kPa, Liquid	0.05158
422.45 K, 3761 kPa, Liquid	0.05162
422.48 K, 2616 kPa, Liquid	0.05022
422.48 K, 2911 kPa, Liquid	0.05073
422.48 K, 3308 kPa, Liquid	0.05108
422.48 K, 3310 kPa, Liquid	0.05105
422.49 K, 1222 kPa, Fluid (supercritical or subcritical phases)	0.02095
422.49 K, 2914 kPa, Liquid	0.05068
422.5 K, 1220 kPa, Fluid (supercritical or subcritical phases)	0.02096
422.52 K, 28114 kPa, Liquid	0.07065
422.54 K, 8781 kPa, Liquid	0.05725
422.54 K, 28086 kPa, Liquid	0.07055
422.55 K, 7612 kPa, Liquid	0.0561
422.55 K, 8782 kPa, Liquid	0.05725
422.56 K, 28121 kPa, Liquid	0.0704
422.57 K, 1031 kPa, Fluid (supercritical or subcritical phases)	0.02086
422.57 K, 1032 kPa, Fluid (supercritical or subcritical phases)	0.02088
422.57 K, 6610 kPa, Liquid	0.0551
422.58 K, 6615 kPa, Liquid	0.05511
422.58 K, 28093 kPa, Liquid	0.07032
422.61 K, 5714 kPa, Liquid	0.05406
422.62 K, 5709 kPa, Liquid	0.05406
422.66 K, 4943 kPa, Liquid	0.05316
422.66 K, 4946 kPa, Liquid	0.05333
422.67 K, 800 kPa, Fluid (supercritical or subcritical phases)	0.02086
422.69 K, 11667 kPa, Liquid	0.05975
422.7 K, 4304 kPa, Liquid	0.05243
422.7 K, 4305 kPa, Liquid	0.05239
422.71 K, 3758 kPa, Liquid	0.05174
422.71 K, 3761 kPa, Liquid	0.05177
422.72 K, 20061 kPa, Liquid	0.0657
422.73 K, 3307 kPa, Liquid	0.0512
422.73 K, 3310 kPa, Liquid	0.05125
422.74 K, 10145 kPa, Liquid	0.0585
422.78 K, 17484 kPa, Liquid	0.06408
422.79 K, 8779 kPa, Liquid	0.05724
422.79 K, 8783 kPa, Liquid	0.05727
422.79 K, 17485 kPa, Liquid	0.06404
422.79 K, 25690 kPa, Liquid	0.06898
422.8 K, 7613 kPa, Liquid	0.05618
422.8 K, 7618 kPa, Liquid	0.05616
422.8 K, 25708 kPa, Liquid	0.06904
422.8 K, 28111 kPa, Liquid	0.07046
422.8 K, 28112 kPa, Liquid	0.07051
422.82 K, 15379 kPa, Liquid	0.06258
422.83 K, 6608 kPa, Liquid	0.05508
422.83 K, 6614 kPa, Liquid	0.05515
422.83 K, 28116 kPa, Liquid	0.07034
422.84 K, 15382 kPa, Liquid	0.06256
422.84 K, 28116 kPa, Liquid	0.07035
422.86 K, 22725 kPa, Liquid	0.06729
422.87 K, 5712 kPa, Liquid	0.0541
422.87 K, 5716 kPa, Liquid	0.05417
422.87 K, 22727 kPa, Liquid	0.06729
422.89 K, 13389 kPa, Liquid	0.06114
422.89 K, 13396 kPa, Liquid	0.0611
422.92 K, 4948 kPa, Liquid	0.05329
422.93 K, 4948 kPa, Liquid	0.05326
422.93 K, 11677 kPa, Liquid	0.05979
422.94 K, 11666 kPa, Liquid	0.05974
422.96 K, 4303 kPa, Liquid	0.05247
422.96 K, 4305 kPa, Liquid	0.05253
422.96 K, 20042 kPa, Liquid	0.06564
422.97 K, 20051 kPa, Liquid	0.06568
423 K, 10141 kPa, Liquid	0.05847
423 K, 10146 kPa, Liquid	0.05853
423 K, 25690 kPa, Liquid	0.06899
423.02 K, 28110 kPa, Liquid	0.07042
423.03 K, 28120 kPa, Liquid	0.07037
423.04 K, 17472 kPa, Liquid	0.06399
423.04 K, 17483 kPa, Liquid	0.06401
423.05 K, 25698 kPa, Liquid	0.06896
423.06 K, 8781 kPa, Liquid	0.05726
423.06 K, 8783 kPa, Liquid	0.05728
423.07 K, 7608 kPa, Liquid	0.05614
423.07 K, 7616 kPa, Liquid	0.05619
423.07 K, 15379 kPa, Liquid	0.06256
423.08 K, 15382 kPa, Liquid	0.06257
423.1 K, 6613 kPa, Liquid	0.05516
423.11 K, 6611 kPa, Liquid	0.05515
423.11 K, 22703 kPa, Liquid	0.06725
423.11 K, 28104 kPa, Liquid	0.07029
423.12 K, 22728 kPa, Liquid	0.06757
423.12 K, 28121 kPa, Liquid	0.07049
423.14 K, 5716 kPa, Liquid	0.05419
423.15 K, 5712 kPa, Liquid	0.0542
423.15 K, 13390 kPa, Liquid	0.06109
423.15 K, 13399 kPa, Liquid	0.06114
423.2 K, 4943 kPa, Liquid	0.05335
423.2 K, 4945 kPa, Liquid	0.0533
423.2 K, 11667 kPa, Liquid	0.05975
423.21 K, 11671 kPa, Liquid	0.05977
423.21 K, 20041 kPa, Liquid	0.06545
423.21 K, 20058 kPa, Liquid	0.06566
423.26 K, 25692 kPa, Liquid	0.06895
423.26 K, 25702 kPa, Liquid	0.06897
423.27 K, 10146 kPa, Liquid	0.05849
423.28 K, 10147 kPa, Liquid	0.05852
423.29 K, 17476 kPa, Liquid	0.06396
423.3 K, 17478 kPa, Liquid	0.064
423.3 K, 28106 kPa, Liquid	0.07034
423.31 K, 28126 kPa, Liquid	0.07033
423.32 K, 8771 kPa, Liquid	0.05728
423.33 K, 8783 kPa, Liquid	0.05728
423.35 K, 7611 kPa, Liquid	0.05616
423.35 K, 7616 kPa, Liquid	0.05621
423.35 K, 15369 kPa, Liquid	0.06251
423.35 K, 15382 kPa, Liquid	0.06259
423.37 K, 22716 kPa, Liquid	0.06724
423.37 K, 22722 kPa, Liquid	0.06728
423.38 K, 6613 kPa, Liquid	0.0552
423.38 K, 28103 kPa, Liquid	0.07024
423.39 K, 28113 kPa, Liquid	0.07028
423.4 K, 6606 kPa, Liquid	0.05518
423.43 K, 13394 kPa, Liquid	0.06111
423.44 K, 5711 kPa, Liquid	0.05425
423.44 K, 5715 kPa, Liquid	0.05429
423.44 K, 13394 kPa, Liquid	0.06111
423.48 K, 20043 kPa, Liquid	0.06561
423.48 K, 20053 kPa, Liquid	0.06564
423.49 K, 11667 kPa, Liquid	0.05991
423.49 K, 11670 kPa, Liquid	0.05977
423.54 K, 25699 kPa, Liquid	0.06893
423.55 K, 25702 kPa, Liquid	0.06894
423.56 K, 10145 kPa, Liquid	0.05848
423.56 K, 10147 kPa, Liquid	0.05849
423.57 K, 17456 kPa, Liquid	0.06393
423.57 K, 17477 kPa, Liquid	0.0642
423.6 K, 28105 kPa, Liquid	0.07025
423.62 K, 8777 kPa, Liquid	0.05731
423.62 K, 28121 kPa, Liquid	0.07026
423.63 K, 8770 kPa, Liquid	0.05731
423.63 K, 15380 kPa, Liquid	0.06255
423.64 K, 15380 kPa, Liquid	0.06256

Reference: the NIST ThermoML archive (doi:10.1021/acs.jced.7b00106)
